Source: patent publication US9586970B2, “Imidazole derivatives” (Hoffmann-La Roche Inc., priority 2014, dated 2017)
pIC50: −log10 of the molar value.

biological target: human PDE10A (Homo sapiens (Human), UniProt Q9Y233); experiment: human PDE10A full length assay ([3H]-cGMP SPA); assay type: biochemical; conditions: full length PDE10A enzyme, 50 nM cGMP + 50 nM [3H]-cGMP, 20 minutes at room temperature; read-out: PDE10A inhibition IC50
Description: The human PDE10A full length assay was performed in 96-well micro titer plates. The reaction mixture of 50 μl contained 20 mM HEPES pH=7.5/10 mM MgCl2/0.05 mg/ml BSA (Sigma cat. #A-7906), 50 nM cGMP (Sigma, cat. #G6129) and 50 nM [3H]-cGMP (GE Healthcare, cat. #TRK392 S.A. 13.2 Ci/mmol), 3.75 ng/well PDE10A enzyme (Enzo Life Science, Lausen, Switzerland cat #SE-534) with or without a specific test compound. A range of concentrations of the potential inhibitor was used to generate data for calculating the concentration of inhibitor resulting in 50% of the effect (e.g. IC50, the concentration of the competitor inhibiting PDE10A activity by 50%). Non-specific activity was tested without the enzyme. The reaction was initiated by the addition of the substrate solution (cGMP and [3H]-cGMP) and allowed to progress for 20 minutes at room temperature. The reaction was terminated by adding 25 μl of YSi-SPA scintillation beads (GE Healthcare, cat. # RPNQ0150) in 18 mM zinc sulphate solution (stop reagent). After 1 h under shaking, the plate was centrifuged one minute at 170 g to allow beads to settle. Afterwards, radioactive counts were measured on a Perkin Elmer TopCount Scintillation plate reader.

Chain of human PDE10A (Q9Y233 other isoform, or with tags, fused parts or gaps): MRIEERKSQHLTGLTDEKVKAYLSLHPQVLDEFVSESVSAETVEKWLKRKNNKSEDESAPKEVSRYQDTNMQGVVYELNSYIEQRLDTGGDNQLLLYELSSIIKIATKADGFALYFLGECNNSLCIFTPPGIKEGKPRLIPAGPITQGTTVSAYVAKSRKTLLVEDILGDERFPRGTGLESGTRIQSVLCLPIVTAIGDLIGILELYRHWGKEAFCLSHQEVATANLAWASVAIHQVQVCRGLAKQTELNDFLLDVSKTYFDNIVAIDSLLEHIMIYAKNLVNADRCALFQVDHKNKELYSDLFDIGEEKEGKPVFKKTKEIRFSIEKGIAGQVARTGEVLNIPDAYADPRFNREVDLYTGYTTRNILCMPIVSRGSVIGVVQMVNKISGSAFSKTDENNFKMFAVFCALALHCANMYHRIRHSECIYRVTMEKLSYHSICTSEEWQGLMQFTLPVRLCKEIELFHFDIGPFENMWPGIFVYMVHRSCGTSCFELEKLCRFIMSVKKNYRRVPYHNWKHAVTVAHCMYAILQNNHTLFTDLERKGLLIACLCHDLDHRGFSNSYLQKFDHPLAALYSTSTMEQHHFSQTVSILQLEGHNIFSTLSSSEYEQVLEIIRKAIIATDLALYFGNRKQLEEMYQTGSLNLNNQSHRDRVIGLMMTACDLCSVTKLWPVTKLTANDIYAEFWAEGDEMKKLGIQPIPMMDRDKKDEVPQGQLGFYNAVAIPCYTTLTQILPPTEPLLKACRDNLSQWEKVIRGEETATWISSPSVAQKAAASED

Point of comparison: `Cc1nc(C#Cc2nc(N3CCCC3=O)cn2C)nc2c(C)cccc12` [Example 9, 1-(2-((4,8-dimethylquinazolin-2-yl)ethynyl)-1-methyl-1H-imidazol-4-yl)pyrrolidin-2-one], pIC50 8.34. Against it:
- 1-{2-[(E)-2-{4,7-Dimethyl-[1,2,4]triazolo[1,5-a]pyrazin-2-yl}ethenyl]-1-phenyl-1H-imidazol-4-yl}pyrrolidin-2-one [Example 20] — 0.63 log units lower, 7.71
- Cc1cnc(C)n2nc(CCc3nc(N4CCCC4=O)cn3C)nc12 [Example 1, 1-(2-(2-(5,8-dimethyl-[1,2,4]triazolo[1,5-c]pyrimidin-2-yl)ethyl)-1-methyl-1H-imidazol-4-yl)pyrrolidin-2-one] — 0.93 log units lower, 7.41
- Cc1ncc(C)n2nc(CCc3nc(N4CCCC4=O)cn3-c3ccccc3)nc12 [Example 2, 1-(2-(2-(5,8-dimethyl-[1,2,4]triazolo[1,5-a]pyrazin-2-yl)ethyl)-1-phenyl-1H-imidazol-4-yl)pyrrolidin-2-one] — 0.55 log units higher, 8.89
- Cc1ncc(C)n2nc(/C=C/c3nc(N4CCCC4=O)cn3-c3ccccc3)nc12 [Example 3] — 0.32 log units lower, 8.02
- Cc1ncc(C)n2nc(CCc3nc(-n4ccccc4=O)cn3CC3CC3)nc12 [Example 4, 1-(1-(Cyclopropylmethyl)-2-(2-(5,8-dimethyl-[1,2,4]triazolo[1,5-a]pyrazin-2-yl)ethyl)-1H-imidazol-4-yl)pyridin-2(1H)-one] — 1.52 log units lower, 6.82
- Cc1ncc(C)n2nc(CCc3nc(-n4ccccc4=O)cn3C)nc12 [Example 5, 1-(2-(2-(5,8-dimethyl-[1,2,4]triazolo[1,5-a]pyrazin-2-yl)ethyl)-1-methyl-1H-imidazol-4-yl)pyridin-2(1H)-one] — 1.63 log units lower, 6.71
- Cc1ncc(C)n2nc(/C=C/c3nc(N4CCCC4=O)cn3C3CC3)nc12 [Example 6, 1-[1-cyclopropyl-2-[(E)-2-(5,8-dimethyl-[1,2,4]triazolo[1,5-a]pyrazin-2-yl)ethenyl]imidazol-4-yl]pyrrolidin-2-one] — 1.25 log units lower, 7.09
- Cc1ncc(C)n2nc(CCc3nc(N4CCCC4=O)cn3C3CC3)nc12 [Example 7, 1-{1-Cyclopropyl-2-[2-(5,8-dimethyl-[1,2,4]triazolo[1,5-a]pyrazin-2-yl)-ethyl]-1H-imidazol-4-yl}-pyrrolidin-2-one] — 0.77 log units lower, 7.57
- Cc1ncc(C)n2nc(/C=C/c3nc(N4CCN(C)C4=O)cn3C)nc12 [Example 8, 2′-[(E)-2-(5,8-Dimethyl-[1,2,4]triazolo[1,5-a]pyrazin-2-yl)-vinyl]-3, 1′-dimethyl-4,5-dihydro-3H, 1′H-[1,4′]biimidazolyl-2-one] — 1.55 log units lower, 6.79
- Cc1ncc(C)n2nc(/C=C/c3nc(N4CCCC4=O)cn3C)nc12 [Example 10, 1-{2-[(E)-2-{4,7-dimethyl-[1,2,4]triazolo[1,5-a]pyrazin-2-yl}ethenyl]-1-methyl-1H-imidazol-4-yl}pyrrolidin-2-one] — 1.08 log units lower, 7.26
- Cc1ncc(C)n2nc(CCc3nc(N4CCCC4=O)cn3C)nc12 [Example 11, 1-[2-(2-{4,7-Dimethyl-[1,2,4]triazolo[1,5-a]pyrazin-2-yl}ethyl)-1-methyl-1H-imidazol-4-yl]pyrrolidin-2-one] — 0.60 log units lower, 7.74
- Cc1ncc(C)n2nc(CCc3nc(N4CCCC4=O)cn3CC3CC3)nc12 [Example 12, 1-[1-(Cyclopropylmethyl)-2-(2-{4,7-dimethyl-[1,2,4]triazolo[1,5-a]pyrazin-2-yl}ethyl)-1H-imidazol-4-yl]pyrrolidin-2-one] — 0.57 log units lower, 7.77
- Cc1ncc(C)n2nc(CCc3nc(N4CCCC4=O)cn3CC(F)(F)F)nc12 [Example 13, 1-[2-(2-{4,7-Dimethyl-[1,2,4]triazolo[1,5-a]pyrazin-2-yl}ethyl)-1-(2,2,2-trifluoroethyl)-1H-imidazol-4-yl]pyrrolidin-2-one] — 0.90 log units lower, 7.44
- Cc1ncc(C)n2nc(CCc3nc(N4CCCC4=O)cn3CC(F)F)nc12 [Example 14, 1-[1-(2,2-difluoroethyl)-2-(2-{4,7-dimethyl-[1,2,4]triazolo[1,5-a]pyrazin-2-yl}ethyl)-1H-imidazol-4-yl]pyrrolidin-2-one] — 1.01 log units lower, 7.33
- Cc1ncc(C)n2nc(C#Cc3nc(N4CCCC4=O)cn3C)nc12 [Example 15, 1-[2-(2-{4,7-Dimethyl-[1,2,4]triazolo[1,5-a]pyrazin-2-yl}ethynyl)-1-methyl-1H-imidazol-4-yl]pyrrolidin-2-one] — 0.80 log units lower, 7.54
- Cc1cnc(C)n2nc(CCc3nc(N4CCCC4=O)cn3CC3CC3)nc12 [Example 16, 1-[1-(Cyclopropylmethyl)-2-(2-{5,8-dimethyl-[1,2,4]triazolo[1,5-c]pyrimidin-2-yl}ethyl)-1H-imidazol-4-yl]pyrrolidin-2-one] — 0.51 log units lower, 7.83
- Cc1cnc(C)n2nc(CCc3nc(N4CCCC4=O)cn3-c3ccccc3)nc12 [Example 17, 1-[2-[2-(5,8-dimethyl-[1,2,4]triazolo[1,5-c]pyrimidin-2-yl)ethyl]-1-phenyl-imidazol-4-yl]pyrrolidin-2-one] — within 0.2 log units, 8.49
- Cc1cnc(C)n2nc(CCc3nc(N4CCCC4=O)cn3CC(F)(F)F)nc12 [Example 18, 1-[2-(2-{5,8-dimethyl-[1,2,4]triazolo[1,5-c]pyrimidin-2-yl}ethyl)-1-(2,2,2-trifluoroethyl)-1H-imidazol-4-yl]pyrrolidin-2-one] — 1.57 log units lower, 6.77
- Cc1cnc(C)n2nc(CCc3nc(N4CCCC4=O)cn3CC(F)F)nc12 [Example 19, 1-[1-(2,2-difluoroethyl)-2-(2-{5,8-dimethyl-[1,2,4]triazolo[1,5-c]pyrimidin-2-yl}ethyl)-1H-imidazol-4-yl]pyrrolidin-2-one] — 0.77 log units lower, 7.57
- Cc1cc(C)n2nc(CCc3nc(N4CCCC4=O)cn3C)nc2n1 [Example 21, 1-[2-(2-{5,7-dimethyl-[1,2,4]triazolo[1,5-a]pyrimidin-2-yl}ethyl)-1-methyl-1H-imidazol-4-yl]pyrrolidin-2-one] — 1.59 log units lower, 6.75
- Cc1c(C(F)(F)F)nc2ccc(CCc3nc(N4CCCC4=O)cn3C)nn12 [Example 22, 1-(1-Methyl-2-{2-[3-methyl-2-(trifluoromethyl)imidazo[1,2-b]pyridazin-6-yl]ethyl}-1H-imidazol-4yl) pyrrolidin-2-one] — 1.41 log units lower, 6.93
- Cc1c(C(F)(F)F)nc2ccc(CCc3nc(N4CCCC4=O)cn3-c3ccccc3)nn12 [Example 23, 1-(2-{2-[3-Methyl-2-(trifluoromethyl)imidazo[1,2-b]pyridazin-6-yl]ethyl}-1-phenyl-1H-imidazol-4yl)pyrrolidin-2-one] — within 0.2 log units, 8.51
- Cc1c(C(F)(F)F)nc2ccc(C#Cc3nc(N4CCCC4=O)cn3C)nn12 [Example 24, 1-(1-Methyl-2-{2-[3-methyl-2-(trifluoromethyl)imidazo[1,2-b]pyridazin-6-yl]ethynyl}-1H-imidazol-4-yl)pyrrolidin-2-one] — 1.22 log units lower, 7.12
- Cc1c(C(F)(F)F)nc2ccc(C#Cc3nc(N4CCCC4=O)cn3-c3ccccc3)nn12 [Example 25, 1-(2-{2-[3-methyl-2-(trifluoromethyl)imidazo[1,2-b]pyridazin-6-yl]ethynyl}-1-phenyl-1H-imidazol-4-yl) pyrrolidin-2-one] — 0.68 log units lower, 7.66
- CNC(=O)c1cc(CCc2nc(N3CCCC3=O)cn2C)nn2c(C)c(C(F)(F)F)nc12 [Example 26] — 1.39 log units lower, 6.95
- CNC(=O)c1cc(CCc2nc(N3CCCC3=O)cn2-c2ccccc2)nn2c(C)c(C(F)(F)F)nc12 [Example 27, N,3-Dimethyl-6-{2-[4-(2-oxopyrrolidin-1-yl)-1-phenyl-1H-imidazol-2-yl]ethyl}-2-(trifluoromethyl)imidazo[1,2-b]pyridazine-8-carb oxamide] — 0.20 log units higher, 8.54
